Like-named read-outs stand apart in the source and are kept apart here.
Legend:
[1] = test system: TNF-α in LPS-challenged human PBMCs; assay: TNF-α in media of LPS-challenged human PBMCs; assay type: cell-based; conditions: 10 ng/ml LPS, 24 h, 3-MP 0 to 30 μM, vs LPS alone
Method: Human peripheral blood mononuclear cells (PBMCs), purchased from ATCC (Cat no. PCS-800–011, Lot no. 81215231, Manassas, VA, USA), were washed with ice-cold HBSS (ATCC 30–2213) containing 10% fetal bovine serum (FBS: ATCC 30–2020) and used for the experiment directly. The washed cells were suspended and maintained in RPMI media supplemented with 10% FBS, penicillin 100 U/mL, and streptomycin 100 µg/mL at 37 °C and 5% CO2. Approximately 5 × 10^5 cells were seeded into 24-well plates and allowed to equilibrate for 2 h. Pomalidomide or 3-MP, dissolved in 100% tissue culture grade dimethylsulfoxide (DMSO: Sigma Aldrich, St Louis, MO, USA), was then added to the wells. The final concentrations of drugs were 0.0, 0.6, 1.0, 10, 30, and 60 µM (n = 3–4 for each group). At 1 h after initiation of treatment, the cells were challenged with lipopolysaccharide (LPS, Sigma Aldrich, E.Coli 055:B5, Cat no. L4005-100MG, Lot no. 0000218759, Endotoxin Unit: 500,000 EU/mg, at a concentration of 10 ng/mL), and the media was collected after a further 24 h for evaluation of lactate dehydrogenase (LDH) activity as a marker of drug-induced cellular toxicity and concentrations of nitrite (In Vitro Toxicology Assay Kit, Lactic Dehydrogenase based, Promega, Cat no. G7891, Madison, WI, USA) (Griess Reagent System, Promega, Cat no. G2930) and TNF-α (human TNF-α ELISA MAX™ Deluxe Set Cat no. […]

[2] = human, 1 μM
[3] = test system: LPS-induced cytokines (TNF-α, IL-6, IL-10, IL-13) in plasma and cerebral cortex; assay: Systemic and brain LPS anti-inflammatory study in rats; assay type: in vivo; conditions: rat, 4 h
Method: They were administered, via the intraperitoneal (I.P.) route, nano-formulated 3-MP at a dose of 13.25 or 26.5 mg/kg (equimolar to a clinically translatable dose of 12.5 and 25 mg/kg thalidomide), vehicle or pomalidomide (25 mg/kg). One hour later, animals were administered either LPS (1 mg/kg, E.Coli 055:B5, Sigma Aldrich, in normal saline, 0.5 mg/mL) or an alike volume of saline (without LPS) via the I.P. route. The LPS dose was selected from prior pilot studies to provide a substantial but sub-maximal rise in plasma proinflammatory cytokine levels, in line with our prior research. The selected 3-MP and pomalidomide doses were chosen as they are equimolar to, or are less than, doses of thalidomide and analogues that have been verified to be well tolerated in our previous studies and are of translational relevance to humans. Four hours after LPS administration, the animals were euthanized, and blood and brain tissues were collected and placed on wet ice. Plasma was quickly separated from blood by centrifugation (10,000 × g, 5 min, 4 °C) and together with the brain samples (cerebral cortex) was stored at − 80 °C. At a later time, cerebral cortex samples were sonicated in a TRIS-based lysis buffer (Mesoscale Discovery) with 3 × protease/phosphatase inhibitors (Halt™ Protease and Phosphatase Inhibitor Cocktail, Thermo Fisher Scientific, Waltham, MA, USA). Samples were then centrifuged (10,000 × g, 5 min, 4 °C), supernatant separated, and protein concentrations were quantified by bicinchoninic acid assay (BCA, Thermo Fisher Scientific). Rat plasma and cerebral cortex samples were analyzed by multi-proinflammatory cytokine ELISA (V-PLEX Proinflammatory Panel 2 Rat Kit, Mesoscale Discovery) following the manufacturer’s protocol to quantify TNF-α, IL-6, IL-10, and IL-13 levels.

[4] = test system: LPS-induced cytokines (TNF-α, IL-6, IL-10, IL-13) in plasma and cerebral cortex; assay: as above; assay type: in vivo; conditions: rat, 1 h pre-treatment, 3-MP 13.23 and 26.47 mg/kg I.P., pomalidomide 25 mg/kg I.P., LPS 1 mg/kg I.P., 4 h
[5] = Sprague Dawley, rat, 1 μM
[6] = target: T1, Adrenergic Alpha2C receptor (Homo sapiens, UniProt P18825); assay: PDSP radioligand binding; conditions: read-out: 3-MP concentration required to induce 50% inhibition of PDSP radioligand binding
T1 construct: NIMH Psychoactive Drug Screening Program (PDSP)
Method: (§1) To evaluate potential binding at classical neurological drug targets, 3-MP and 3,6’-DP were submitted to the National Institute on Mental Health (NIMH) Psychoactive Drug Screening Program (PDSP: Univ. N Carolina, Chapel Hill, NC, USA < https://pdspdb.unc.edu/pdspweb/ >) as powdered samples in the provided vials. The materials were then prepared at the PDSP in 10% DMSO, subjected to multiple assay screens, and processed as per the PDSP Assay Protocol Book (Version 3, March 2018). Compounds that exceeded an initial 10 uM binding threshold were then delegated for secondary dose–response analysis. This screen comprised a 45-target comprehensive panel of common brain receptor and transporter drug targets.

δ-opioid receptor = δ-opioid receptor (Homo sapiens, UniProt P41143); assay: PDSP radioligand binding; conditions: read-out: 3-MP concentration required to induce 50% inhibition of PDSP radioligand binding
Method: as §1

[7] = target: T2, Adrenergic Beta3 receptor (Homo sapiens, UniProt P13945); assay: PDSP radioligand binding; conditions: read-out: 3-MP concentration required to induce 50% inhibition of PDSP radioligand binding
T2 construct: NIMH Psychoactive Drug Screening Program (PDSP)
Method: as §1

Muscarinic M4 receptor = Muscarinic M4 receptor (Homo sapiens, UniProt P08173); assay: PDSP radioligand binding; conditions: read-out: 3-MP concentration required to induce 50% inhibition of PDSP radioligand binding
Method: as §1

[8] = target: T3, Serotonin 5-HT1A receptor (Homo sapiens, UniProt P08908); assay: PDSP radioligand binding; conditions: read-out: 3-MP concentration required to induce 50% inhibition of PDSP radioligand binding
T3 construct: NIMH Psychoactive Drug Screening Program (PDSP)
Method: as §1

[9] = target: T4, Adrenergic Alpha2B receptor (Homo sapiens, UniProt P18089); assay: PDSP radioligand binding; conditions: read-out: 3-MP concentration required to induce 50% inhibition of PDSP radioligand binding
T4 construct: NIMH Psychoactive Drug Screening Program (PDSP)
Method: as §1

[10] = target: T5, Serotonin 5-HT2B receptor (Homo sapiens, UniProt P41595); assay: PDSP radioligand binding; conditions: read-out: 3-MP concentration required to induce 50% inhibition of PDSP radioligand binding
T5 construct: NIMH Psychoactive Drug Screening Program (PDSP)
Method: as §1

Muscarinic M1 receptor = Muscarinic M1 receptor (Homo sapiens, UniProt P11229); assay: PDSP radioligand binding; conditions: read-out: 3-MP concentration required to induce 50% inhibition of PDSP radioligand binding
Method: as §1

[11] = target: T6, Adrenergic Alpha1A receptor (Homo sapiens, UniProt P35348); assay: PDSP radioligand binding; conditions: read-out: 3-MP concentration required to induce 50% inhibition of PDSP radioligand binding
T6 construct: NIMH Psychoactive Drug Screening Program (PDSP)
Method: as §1

Muscarinic M2 receptor = Muscarinic M2 receptor (Homo sapiens, UniProt P08172); assay: PDSP radioligand binding; conditions: read-out: 3-MP concentration required to induce 50% inhibition of PDSP radioligand binding
Method: as §1

[12] = 13.25 and 26.5 mg/kg I.P. 1 h before LPS 1 mg/kg I.P.

Sequence of Muscarinic M4 receptor (P08173 whole entry): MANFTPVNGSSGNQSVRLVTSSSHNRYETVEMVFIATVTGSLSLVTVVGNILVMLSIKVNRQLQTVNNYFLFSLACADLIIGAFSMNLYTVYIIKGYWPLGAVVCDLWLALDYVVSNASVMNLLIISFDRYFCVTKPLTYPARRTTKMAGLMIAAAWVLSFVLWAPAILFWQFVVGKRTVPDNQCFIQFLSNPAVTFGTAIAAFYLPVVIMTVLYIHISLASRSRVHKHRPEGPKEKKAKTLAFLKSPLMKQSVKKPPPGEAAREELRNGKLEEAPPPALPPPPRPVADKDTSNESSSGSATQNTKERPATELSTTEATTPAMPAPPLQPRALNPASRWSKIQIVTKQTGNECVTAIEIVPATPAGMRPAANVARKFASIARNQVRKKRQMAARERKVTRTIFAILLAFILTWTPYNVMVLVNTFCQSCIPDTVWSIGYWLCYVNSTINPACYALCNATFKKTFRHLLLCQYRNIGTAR
Sequence of Muscarinic M2 receptor (P08172 whole entry): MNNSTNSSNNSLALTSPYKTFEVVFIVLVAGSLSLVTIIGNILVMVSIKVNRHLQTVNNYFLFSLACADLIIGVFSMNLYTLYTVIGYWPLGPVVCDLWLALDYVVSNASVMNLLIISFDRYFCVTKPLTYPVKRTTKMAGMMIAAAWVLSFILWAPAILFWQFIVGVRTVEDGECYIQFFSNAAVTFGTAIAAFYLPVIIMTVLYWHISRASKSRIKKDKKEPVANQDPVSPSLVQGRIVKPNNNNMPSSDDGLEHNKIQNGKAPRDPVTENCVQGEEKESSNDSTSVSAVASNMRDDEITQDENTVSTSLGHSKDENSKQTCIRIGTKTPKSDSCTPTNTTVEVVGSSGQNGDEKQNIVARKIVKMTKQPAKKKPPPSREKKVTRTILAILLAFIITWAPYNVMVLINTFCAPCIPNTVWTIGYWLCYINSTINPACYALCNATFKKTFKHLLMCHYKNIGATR
T4 sequence (P18089 whole entry): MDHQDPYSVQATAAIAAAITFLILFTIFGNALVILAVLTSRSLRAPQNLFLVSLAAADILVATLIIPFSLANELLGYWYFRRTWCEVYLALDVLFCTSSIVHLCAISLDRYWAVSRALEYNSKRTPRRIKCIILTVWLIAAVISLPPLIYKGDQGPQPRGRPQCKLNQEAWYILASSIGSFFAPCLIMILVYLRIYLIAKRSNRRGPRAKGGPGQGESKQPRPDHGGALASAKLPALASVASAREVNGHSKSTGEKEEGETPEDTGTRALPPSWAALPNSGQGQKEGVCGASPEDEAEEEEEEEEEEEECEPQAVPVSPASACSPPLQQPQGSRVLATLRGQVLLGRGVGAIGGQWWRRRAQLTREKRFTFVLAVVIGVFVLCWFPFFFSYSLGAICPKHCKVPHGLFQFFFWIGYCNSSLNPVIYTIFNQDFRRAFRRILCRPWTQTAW
T3 sequence (P08908 whole entry): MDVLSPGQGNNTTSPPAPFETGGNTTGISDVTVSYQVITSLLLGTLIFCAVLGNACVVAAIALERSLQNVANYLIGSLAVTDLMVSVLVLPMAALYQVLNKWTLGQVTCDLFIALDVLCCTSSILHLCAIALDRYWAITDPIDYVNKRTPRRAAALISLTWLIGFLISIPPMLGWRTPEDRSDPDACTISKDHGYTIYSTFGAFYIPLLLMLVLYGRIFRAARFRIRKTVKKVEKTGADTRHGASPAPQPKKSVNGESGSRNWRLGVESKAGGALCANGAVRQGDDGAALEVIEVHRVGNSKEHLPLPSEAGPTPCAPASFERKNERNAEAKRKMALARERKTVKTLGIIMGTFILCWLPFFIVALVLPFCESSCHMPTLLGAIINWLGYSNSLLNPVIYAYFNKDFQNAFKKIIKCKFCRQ
Sequence of Muscarinic M1 receptor (P11229 whole entry): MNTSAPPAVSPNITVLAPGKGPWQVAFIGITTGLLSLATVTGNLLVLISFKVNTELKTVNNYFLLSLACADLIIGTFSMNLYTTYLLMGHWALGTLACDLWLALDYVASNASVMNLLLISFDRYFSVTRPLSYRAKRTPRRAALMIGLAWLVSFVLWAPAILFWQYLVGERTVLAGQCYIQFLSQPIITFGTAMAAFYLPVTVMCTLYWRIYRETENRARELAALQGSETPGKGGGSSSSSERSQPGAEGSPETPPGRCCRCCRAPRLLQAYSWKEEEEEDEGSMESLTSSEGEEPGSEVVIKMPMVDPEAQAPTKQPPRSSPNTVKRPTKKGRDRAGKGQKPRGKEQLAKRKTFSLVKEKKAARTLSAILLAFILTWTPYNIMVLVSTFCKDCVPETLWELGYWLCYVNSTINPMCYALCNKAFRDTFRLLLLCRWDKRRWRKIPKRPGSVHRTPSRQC
T6 sequence (P35348 whole entry): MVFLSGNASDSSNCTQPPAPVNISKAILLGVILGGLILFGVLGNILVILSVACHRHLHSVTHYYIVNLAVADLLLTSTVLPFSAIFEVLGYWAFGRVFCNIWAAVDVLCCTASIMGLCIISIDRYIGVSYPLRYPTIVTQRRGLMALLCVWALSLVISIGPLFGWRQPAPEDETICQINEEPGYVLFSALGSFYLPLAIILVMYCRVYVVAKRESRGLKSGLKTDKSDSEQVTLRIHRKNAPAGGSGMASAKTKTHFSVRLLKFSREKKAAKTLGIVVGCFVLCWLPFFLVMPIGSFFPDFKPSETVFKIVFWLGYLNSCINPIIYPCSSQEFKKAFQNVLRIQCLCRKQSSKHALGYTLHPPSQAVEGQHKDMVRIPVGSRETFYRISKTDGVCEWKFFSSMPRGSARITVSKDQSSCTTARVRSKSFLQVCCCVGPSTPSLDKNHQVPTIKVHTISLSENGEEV
Sequence of δ-opioid receptor (P41143 whole entry): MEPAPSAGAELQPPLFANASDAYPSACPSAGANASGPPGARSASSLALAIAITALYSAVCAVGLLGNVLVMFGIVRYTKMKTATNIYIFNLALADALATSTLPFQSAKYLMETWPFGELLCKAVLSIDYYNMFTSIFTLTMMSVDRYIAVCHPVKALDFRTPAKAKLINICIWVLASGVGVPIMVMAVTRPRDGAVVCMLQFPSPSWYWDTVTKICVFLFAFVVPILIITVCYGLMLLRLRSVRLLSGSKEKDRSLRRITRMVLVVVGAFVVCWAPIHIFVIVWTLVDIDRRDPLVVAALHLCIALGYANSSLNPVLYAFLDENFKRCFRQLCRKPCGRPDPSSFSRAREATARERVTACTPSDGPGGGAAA
T2 sequence (P13945 whole entry): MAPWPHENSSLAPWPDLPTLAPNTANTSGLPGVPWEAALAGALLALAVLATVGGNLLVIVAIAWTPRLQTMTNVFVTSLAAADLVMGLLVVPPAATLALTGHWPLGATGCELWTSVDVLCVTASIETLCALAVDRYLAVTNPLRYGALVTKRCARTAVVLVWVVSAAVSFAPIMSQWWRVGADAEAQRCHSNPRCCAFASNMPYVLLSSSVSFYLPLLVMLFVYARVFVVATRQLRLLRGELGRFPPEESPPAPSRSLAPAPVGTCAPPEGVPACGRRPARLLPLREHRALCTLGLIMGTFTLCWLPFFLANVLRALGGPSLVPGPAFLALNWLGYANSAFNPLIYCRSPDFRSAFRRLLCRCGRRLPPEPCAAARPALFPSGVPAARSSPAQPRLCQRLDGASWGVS
T5 sequence (P41595 whole entry): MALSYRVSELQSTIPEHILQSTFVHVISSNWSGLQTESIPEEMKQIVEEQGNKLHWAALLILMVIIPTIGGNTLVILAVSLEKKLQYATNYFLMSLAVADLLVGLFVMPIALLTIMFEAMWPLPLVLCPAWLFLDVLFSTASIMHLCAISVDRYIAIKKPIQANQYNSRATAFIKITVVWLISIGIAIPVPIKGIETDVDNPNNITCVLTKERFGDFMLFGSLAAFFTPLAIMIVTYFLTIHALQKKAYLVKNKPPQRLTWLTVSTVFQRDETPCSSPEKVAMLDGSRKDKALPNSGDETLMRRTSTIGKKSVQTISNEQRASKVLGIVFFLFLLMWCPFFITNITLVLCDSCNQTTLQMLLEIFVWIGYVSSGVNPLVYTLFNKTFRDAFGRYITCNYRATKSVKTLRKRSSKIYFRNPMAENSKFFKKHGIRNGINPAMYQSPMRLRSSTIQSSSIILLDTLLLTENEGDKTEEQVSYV
T1 sequence (P18825 whole entry): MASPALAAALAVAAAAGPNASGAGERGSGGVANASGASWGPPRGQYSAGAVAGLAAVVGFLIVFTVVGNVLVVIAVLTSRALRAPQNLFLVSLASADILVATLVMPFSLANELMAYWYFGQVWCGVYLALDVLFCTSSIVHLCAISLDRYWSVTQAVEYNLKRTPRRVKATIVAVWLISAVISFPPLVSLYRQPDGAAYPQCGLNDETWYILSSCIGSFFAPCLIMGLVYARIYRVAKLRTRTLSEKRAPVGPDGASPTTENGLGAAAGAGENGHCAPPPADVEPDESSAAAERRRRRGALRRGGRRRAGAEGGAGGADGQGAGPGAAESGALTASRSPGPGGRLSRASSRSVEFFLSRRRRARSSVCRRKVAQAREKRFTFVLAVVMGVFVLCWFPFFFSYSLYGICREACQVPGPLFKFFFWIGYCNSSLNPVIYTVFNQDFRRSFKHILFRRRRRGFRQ

With `Nc1cccc2c1C(=S)N(C1CCC(=O)NC1=O)C2=O` (stereo not drawn) [3-MP, 3-Monothiopomalidomide] the “TNF-α levels in media” value [1] was “dose-dependently reduced”, the “reduction of 3-MP levels following 60-min incubation” value ([2]; 60 min) was 8.2% and the “Remaining (NCF = 60 min)” value ([2]; microsomes, 1 h) was 115.3%. For the same molecule, the “Remaining (T = 60 min)” value ([2]; microsomes, 1 h) was 91.8%, the “LPS-mediated reduction in plasma IL-13” value ([3]; 3-MP both doses I.P., LPS 1 mg/kg) was “abated” and the “LPS-mediated elevations in brain IL-13” value ([3]; 3-MP both doses and pomalidomide I.P., LPS 1 mg/kg) was “maintained”. The “decline in IL-6 brain levels” value ([3]; 3-MP low dose 13.25 mg/kg I.P., pomalidomide 25 mg/kg I.P., LPS 1 mg/kg) was “failed to achieve statistical significance”, the “LPS-induced rise in plasma IL-6” value [3, 12] was “reduced” and the “LPS-induced rise in plasma TNF-α” value [3, 12] was “reduced”. For the same molecule, the “IL-10 elevation induced by LPS in plasma or brain” value ([3]; high- or low-dose 3-MP or pomalidomide I.P., LPS 1 mg/kg) was “not lessened”, the “LPS-induced cytokine changes in plasma and cerebral cortex” value [4] was “significantly mitigated” and the “reduction of 3-MP levels following 60-min incubation” value ([5]; 60 min) was 24.3%. The “Remaining (NCF = 60 min)” value ([5]; microsomes, 1 h) was 116.4%, the “Remaining (T = 60 min)” value ([5]; microsomes, 1 h) was 75.7% and the IC50 [6] was > 10 µM. For the same molecule, the IC50 (δ-opioid receptor) was > 10 µM, the IC50 [7] was > 10 µM and the IC50 (Muscarinic M4 receptor) was > 10 µM. For the same molecule, the IC50 [8] was > 10 µM, the IC50 [9] was > 10 µM and the IC50 [10] was > 10 µM. For the same molecule, the IC50 (Muscarinic M1 receptor) was > 10 µM, the IC50 [11] was > 10 µM and the IC50 (Muscarinic M2 receptor) was > 10 µM.
